Measured values from publication PMC6981144 (Nature Communications, 2020).
Several values for one entry are separate records, joined by “and”; a condition that tells them apart may be missing. Identical values can stand only once.

Experiments:
GLP1R [1] = assay: cAMP imaging in islets with FRET probe Epac2-camps; assay type: cell-based, mouse; conditions: Glp1r+/+ versus Glp1r(GE)−/− islets
Text: Islets were transduced with adenovirus harboring the FRET sensor, Epac2-camps[56] (a kind gift from Prof. Dermot Cooper, University of Cambridge), before imaging using a Crest X-Light spinning disk system coupled to a Nikon Ti-E base and ×10/0.4 NA objective. Excitation was delivered at λ = 430–450 nm using a Lumencor Spectra X light engine. Emitted signals were detected at λ = 460–500 and λ = 520–550 nm for Cerulean and Citrine, respectively, using a Photometrics Delta Evolve EM-CCD. Imaging was performed in HEPES–bicarbonate buffer, containing (in mmol/L) 120 NaCl, 4.8 KCl, 24 NaHCO3, 0.5 Na2HPO4, 5 HEPES, 2.5 CaCl2, 1.2 MgCl2, and 3–17 D-glucose.

GLP1R [2] = assay: Insulin secretion in isolated Glp1r+/+ and Glp1r(GE)−/− islets; assay type: cell-based, mouse; conditions: for Insulin (secreted/total): G16.7+Ex4 (10 nM), individual repeats, listed as Ex4
Text: For all statistical tests, *P < 0.05, **P < 0.01 and NS, non-significant. […] Mean ± s.e.m. are shown. Source data are provided as a Source Data file.

GLP1R [3] = biological target: T1, GLP1R (Homo sapiens, UniProt P43220); assay: HTRF cAMP assay in HEK293-SNAP_GLP1R cells, agonist and antagonist modes, with or without PAM BETP; assay type: cell-based; conditions: n = 4 independent assays; for antagonist properties against GLP-1-induced cAMP production: applied at 1 µM, 30 min GLP-1 stimulation; for agonist or partial agonist activity (cAMP): ligand alone, 30 min
T1 construct: expressed in transfected cells
Experimental: (§1) Mean ± s.e.m. are shown. **P < 0.01 for all statistical tests. Source data are provided as a Source Data file.
Potency for cAMP generation and inhibition was tested in heterologous expression systems, comprising either stable CHO-K1-SNAP_GLP1R or HEK-SNAP_GLP1R cells, or transiently transfected YFP-AD293-SNAP_GLP1R cells. Briefly, cells were incubated with increasing concentrations of compound with and without allosteric modulator for 30 min, before harvesting, lysis and measurement of cAMP using either cAMP-Glo^TM (Promega) or HTRF (Cisbio) assays, according to the manufacturer’s instructions. All assays were performed in the presence of 100–500 µM IBMX to inhibit phosphodiesterase activity. EC50 values were calculated using log concentration–response curves fitted with a three-parameter or four-parameter equation. […]
pharmacology. HTRF cAMP assays in HEK-SNAP_GLP1R cells in agonist and antagonist modes, stimulated with ligand for 30 min. Note that LUXendins are GLP1R antagonists […]
are shown. Source data are provided as a Source Data file.
(1 picture or pasted object on this page, not shown here)

GLP1R [4] = assay: Surface GLP1R expression in islets, GLP1R monoclonal antibody staining; assay type: cell-based, mouse; conditions: LUXendin555 250 nM, LUXendin645 100 nM, Ex9 250 nM
Text: as §1

T1 sequence (P43220 24-463): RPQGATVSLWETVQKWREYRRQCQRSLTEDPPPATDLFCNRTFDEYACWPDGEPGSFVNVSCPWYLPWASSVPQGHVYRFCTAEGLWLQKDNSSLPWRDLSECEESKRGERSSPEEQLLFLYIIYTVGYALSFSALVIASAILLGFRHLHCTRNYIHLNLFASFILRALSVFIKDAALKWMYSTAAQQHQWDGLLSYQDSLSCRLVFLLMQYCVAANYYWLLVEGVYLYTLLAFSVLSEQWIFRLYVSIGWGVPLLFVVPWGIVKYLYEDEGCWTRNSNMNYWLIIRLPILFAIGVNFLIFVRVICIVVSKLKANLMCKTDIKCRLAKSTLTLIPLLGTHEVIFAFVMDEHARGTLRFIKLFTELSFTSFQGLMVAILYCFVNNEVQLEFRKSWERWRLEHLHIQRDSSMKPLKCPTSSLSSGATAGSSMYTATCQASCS

Liraglutide (HAEGTFTSDVSSYLEGQAAKEFIAWLVRGRG; chains of the INN, looked up) [incretin-mimetic]
stimulation of cAMP rises in islets (GLP1R [1]): only able to stimulate cAMP rises in islets from wild-type

Exendin4(1–39)
Exendin4(1–39)-stimulated insulin secretion in Glp1r(GE)−/− islets (GLP1R [2]; Ex4 10 nM): absence of Exendin4(1–39)-stimulated insulin secretion
Insulin (secreted/total) (GLP1R [2]; KO islets): 0.004511 and 0.004222 and 0.01074 and 0.01469 and 0.006361 and 0.004456 and 0.008025 and 0.00578 and 0.004129 and 0.001581 and 0.003759 and 0.00219 and 0.001686 and 0.003265 and 0.005154 and 0.02304 and 0.01055 and 0.00295
Insulin (secreted/total) (GLP1R [2]; WT islets): 0.004112 and 0.004627 and 0.005837 and 0.009517 and 0.006319 and 0.005338 and 0.01271 and 0.01517 and 0.02135 and 0.009713 and 0.003732 and 0.0026 and 0.01717 and 0.03657 and 0.02723 and 0.004332

Exendin4(9–39)
antagonist properties against GLP-1-induced cAMP production (GLP1R [3]): similarly blocked
agonist or partial agonist activity (cAMP) (GLP1R [3]): No agonist or partial agonist activity was detected
GLP1R surface expression in islets (GLP1R [4]): no differences

S39C-Exendin4(9–39): S39C mutant of Exendin4(9–39) with a C-terminal thiol handle
antagonist properties against GLP-1-induced cAMP production (GLP1R [3]): similarly blocked
agonist or partial agonist activity (cAMP) (GLP1R [3]): No agonist or partial agonist activity was detected
